Laboratory results published in US9689043B2 (CHUNGBUK NATIONAL UNIVERSITY INDUSTRY—ACADEMIC COOPERATION …, priority 2012, dated 2017).

Tested on: T24 human bladder cancer cells
Assay: Cell viability assay (MTS) in transfected T24 cells incubated with drugs
Format: cell-based
Experimental: T24 human bladder cancer cells were purchased from American Type Culture Collection (ATCC, Manassas, Va.) and maintained in RPMI1640 media (Invitrogen, Carlsbad, Calif.) with 10% FBS and 1% Penicillin/Streptomycin at 37° C. under 5% CO2. T24 cells at ˜80% confluence were transiently transfected with expressing constructs or small interfering RNAs (siRNAs) of EGFR and S100A9 using Lipofactamine 2000. For S100A9 overexpression, pCMV-Sports6-S100A9 and vector constructs were kindly provided by Dr. A. Moon (Duksung University, Korea). As transfection controls, empty (Ctrl) or NON-TARGET control siRNAs (siCtrl) were used.
Cell viability was determined using MTS reagents as instructed by the manufacturer's protocol (Promega Corporation, Madison, Wis.).

Row | Compound | Cell viability (T24 cells, EGFR inhibition with Iressa (FIG. 6, line 2)) | Chemo-sensitivity to cisplatin (T24 cells, EGFR inhibition with Iressa plus cisplatin (FIG. 6, line 2)) | Chemo-sensitivity to cisplatin (T24 cells, Iressa combined with S100A9 silencing by siRNA, plus cisplatin (FIG. 6, line 4)) | Cisplatin-induced apoptosis / viability (EGFR overexpressing T24 cells, 10 μM cisplatin, serum free medium)
1 | COc1cc2ncnc(Nc3ccc(F)c(Cl)c3)c2cc1OCCCN1CCOCC1 [Iressa, gefitinib] | significantly reduced viability | enhanced chemo-sensitivity to cisplatin | synergistically enhanced chemo-sensitivity | 
2 | N.N.[Cl][Pt][Cl] [cisplatin] |  |  |  | did not show significant apoptosis until 24 h-treatment
